Experimental data from ChEMBL document CHEMBL4043130, “Discovery of a tetrahydroisoquinoline-based HDAC inhibitor with improved plasma stability” (Bioorg Med Chem, 2017).
Active and inactive are the calls of the source. No cut-off for these calls is given here.

Columns and labels:
[1] = Half life in rat plasma by HPLC analysis; type: ADME, cell-free
[2] = Inhibition of HDAC in human HeLa nuclear extract preincubated for 5 mins followed by Boc-Lys (acetyl)-AMC addition measured after 10 mins by fluorescence assay
[3] = biological target: Histone deacetylase 1/2/3 (Homo sapiens) (UniProt Q13547+O15379+Q92769); assay: Inhibition of HDAC1/2/3 in human MDA-MB-231 cells assessed as increase in hyperacetylation of histone H3 level at 1 uM after 3 hrs by Western blot analysis; type: cell-based
[4] = test system: MDA-MB-231; assay: Antitumor activity against human MDA-MB-231 cells xenografted subcutaneously in BALB/c nude mouse assessed as reduction in tumor growth at 90 mg/kg, po; type: functional, organism-based
[5] = test system: MDA-MB-231; assay: Antiproliferative activity against human MDA-MB-231 cells after 48 hrs by MTT assay; type: functional, cell-based; settings: MDA-MB-231, 48 h
[6] = test system: U-266; assay: Antiproliferative activity against human U266 cells after 48 hrs by MTT assay; type: functional, cell-based; settings: U-266, 48 h
[7] = biological target: T1, Protein deacetylase HDAC6 (Homo sapiens) (UniProt Q9UBN7); assay: Inhibition of HDAC6 in human MDA-MB-231 cells assessed as increase in acetylated alpha tubulin level at 1 uM after 3 hrs by Western blot analysis; type: cell-based
T1 sequence (whole entry): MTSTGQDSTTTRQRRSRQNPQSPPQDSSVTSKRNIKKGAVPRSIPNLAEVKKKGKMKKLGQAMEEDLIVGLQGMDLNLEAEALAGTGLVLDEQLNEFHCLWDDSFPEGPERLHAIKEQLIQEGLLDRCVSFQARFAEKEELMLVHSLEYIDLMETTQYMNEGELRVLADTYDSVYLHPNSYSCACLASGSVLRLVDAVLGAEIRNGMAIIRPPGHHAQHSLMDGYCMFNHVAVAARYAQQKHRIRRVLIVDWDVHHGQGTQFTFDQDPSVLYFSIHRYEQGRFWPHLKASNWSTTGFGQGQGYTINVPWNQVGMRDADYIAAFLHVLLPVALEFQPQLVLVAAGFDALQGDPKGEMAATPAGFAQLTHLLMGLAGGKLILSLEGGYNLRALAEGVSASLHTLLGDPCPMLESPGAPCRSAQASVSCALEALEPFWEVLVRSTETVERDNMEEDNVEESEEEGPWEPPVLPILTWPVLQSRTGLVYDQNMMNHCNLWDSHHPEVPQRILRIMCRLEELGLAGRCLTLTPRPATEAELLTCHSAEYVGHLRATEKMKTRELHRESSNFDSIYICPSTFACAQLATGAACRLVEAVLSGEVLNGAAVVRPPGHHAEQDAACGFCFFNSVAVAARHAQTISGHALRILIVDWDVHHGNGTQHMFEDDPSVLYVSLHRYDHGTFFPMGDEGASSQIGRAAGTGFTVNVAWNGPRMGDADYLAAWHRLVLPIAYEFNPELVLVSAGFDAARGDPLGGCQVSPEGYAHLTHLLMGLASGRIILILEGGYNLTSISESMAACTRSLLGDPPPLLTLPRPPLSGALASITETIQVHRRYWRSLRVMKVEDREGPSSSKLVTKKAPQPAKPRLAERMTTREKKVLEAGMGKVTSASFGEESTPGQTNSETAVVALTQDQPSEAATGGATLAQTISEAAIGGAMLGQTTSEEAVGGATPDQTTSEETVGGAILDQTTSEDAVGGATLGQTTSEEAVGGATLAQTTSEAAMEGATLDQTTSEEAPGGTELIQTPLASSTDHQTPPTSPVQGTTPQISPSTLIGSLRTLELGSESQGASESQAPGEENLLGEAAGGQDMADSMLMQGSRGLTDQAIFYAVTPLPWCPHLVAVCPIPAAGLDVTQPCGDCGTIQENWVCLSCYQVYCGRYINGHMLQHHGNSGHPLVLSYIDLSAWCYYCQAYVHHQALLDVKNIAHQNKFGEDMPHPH

[8] = test system: MDA-MB-231; assay: Antitumor activity against human MDA-MB-231 cells xenografted subcutaneously in BALB/c nude mouse assessed as reduction in tumor volume at 90 mg/kg, po; type: functional, organism-based
[9] = test system: U-937; assay: Antiproliferative activity against human U937 cells after 48 hrs by MTT assay; type: functional, cell-based; settings: U-937, 48 h

CC[C@H](C)[C@H](NC(=O)OC(C)(C)C)C(=O)N1Cc2cc(OCC(=O)NO)ccc2C[C@H]1C(=O)Nc1ccc(N(C)C)cc1 gave a half-life [1] of 2.18 h and an IC50 [2] of 55 nM.
For CC[C@H](C)[C@H](NC(=O)CC(C)(C)C)C(=O)N1Cc2cc(OCC(=O)NO)ccc2C[C@H]1C(=O)Nc1ccc(OC)cc1, the half-life [1] was 1.72 h, the inhibition [3] was “Active” and the TGI [4] was “Active”. The IC50 [5] was 2560 nM, the IC50 [6] was 690 nM and the inhibition [7] was “Active”. The IC50 [2] was 69.4 nM, the inhibition [8] was “Active” and the IC50 [9] was 560 nM.
Work on CN(C)c1ccc(NC(=O)[C@@H]2Cc3ccc(OCC(=O)NO)cc3CN2C(=O)CNC(=O)CC(C)(C)C)cc1 yielded a half-life [1] of 1.13 h and an IC50 [2] of 377 nM.
For CC[C@H](C)[C@H](NC(=O)CC(C)(C)C)C(=O)N1Cc2cc(OCC(=O)NO)ccc2C[C@H]1C(=O)Nc1ccc(N(C)C)cc1, the half-life [1] was 10.5 h, the inhibition [3] was “Active” and the TGI [4] was “Active”. For the same compound, the IC50 [5] was 2130 nM, the IC50 [6] was 780 nM and the inhibition [7] was “Active”. For the same compound, the IC50 [2] was 38.5 nM, the inhibition [8] was “Active” and the IC50 [9] was 550 nM.
